Experimental data from US6787354B2, “Methods for the early diagnosis of ovarian cancer” (The Board of Trustees of The University of Arkansas, priority 1997, dated 2004).
Ends that are not written are not given here.

System: peptide-loaded lymphoblastoid cell lines (LCL)
Experiment: 51Cr-release cytotoxicity assay with peptide-specific CD8+ CTL
Format: cell-based, human
Description: Monocyte-derived dendritic cells were generated from peripheral blood drawn from normal adult donors of the appropriate HLA type. Adherent monocytes were cultured in AIM-V (Gibco-BRL) supplemented with GM-CSF and IL-4 according to standard techniques (Santin et al, 2000, 2001). After 5-6 days, dendritic cell maturation was induced by addition of PGE2, IL-1β and TNFα for a further 48 h.
Mature dendritic cells were loaded with peptide (2×10^6 dendritic cells with 50 μg/ml peptide in 1 ml serum-free AIM-V medium for 2 h at 37° C.) and washed once prior to culture with 1×10^6/ml peripheral blood mononuclear cells (PBMC) in AIM-V or AIM-V plus 5% human AB serum. The PBMC:DC ratio was between 20:1 and 30:1. After 7 days, responder T cells were restimulated with peptide-loaded, irradiated autologous dendritic cells or peripheral blood mononuclear cells at responder:stimulator ratios between 10:1 and 20:1 or 1:1 and 1:10 respectively. At this point, cultures were supplemented with recombinant human IL-2 (10-100 U/ml), and fed with 50-75% changes of fresh medium plus IL-2 every 2-4 days. T cell lines were established and maintained by peptide restimulation every 14-21 days. Responder CD8^+T cells were purified by positive selection with anti-CD8-coupled magnetic beads (Dynal, Inc.) after the 2nd or 3rd antigen stimulation.
Peptide-specific cytotoxicity was tested in standard 5-6 h microwell ^51Cr-release assays (Nazaruk et al, 1998). Autologous EBV-transformed lymphoblastoid cell lines (LCL) were loaded with peptide (50 μg/ml, 1 h at 37° C.) and subsequently ^51Cr-labeled (50 μCi in 200-300 μl, 1 h at 37° C.). Peptide-loaded ^51Cr-labeled LCL were incubated with CD8^+T cells at effector-target ration between 5:1 and 1.25:1. Cytotoxicity was recorded as percentage ^51Cr released into culture supernatants.

Row | Sequence | Blocking of cytotoxicity against peptide-loaded LCL by MAb specific for a non-polymorphic HLA class I determinant | Blocking of cytotoxicity by MAb specific for HLA A2.1
1 | GRWPWQVSL [GRWPWQVSL] | could be blocked | –
2 | SLGRWPWQV [SLGRWPWQV] | could be blocked | blocked
